# Laboratory results published in US20210386068A1, “COMPOSITIONS COMPRISING PYRIDINE CARBOXYLATE HERBICIDES AND VERY LONG CHAIN FATTY ACID (VLCFA) SYNTHESIS INHIBITOR HERBICIDES” (priority 2018, published 2021).
# Several values for one entry are separate records, joined by “and”; a condition that tells them apart may be missing. Identical values can stand only once.
# Key:
# [1] = tested on: Polygonum convolvulus (wild buckwheat, POLCO); experiment: Greenhouse postemergence herbicidal effect, visual injury 20-22 d after spraying, wild buckwheat (POLCO); assay type: in vivo
# Text: (§1) Seeds of the desired test plant species were planted in a 90:10% v/v (volume/volume) mixture of PRO-MIX® BX (Premier Tech Horticulture, Quakertown, Pa., USA) and PROFILE® GREENS GRADE™ (Profile Products LLC, Buffalo Grove, Ill., USA) planting mixture, which typically has a pH of 5.2 to 6.2 and an organic matter content of at least 50 percent, in plastic pots with a surface area of 103.2 square centimeters (cm^2). In some aspects, to ensure good germination and healthy plants, a fungicide treatment and/or other chemical or physical treatment was applied. The plants were grown for 7-36 days (d) in a greenhouse with an approximate 14-hour (h) photoperiod which was maintained at about 23° C. during the day and 22° C. during the night. Nutrients and water were added on a regular basis and supplemental lighting was provided with overhead metal halide 1000-Watt lamps as necessary. The plants were employed for testing when they reached the second or third true leaf stage.
# (§2) Emulsifiable concentrates of each of each pyridine carboxylate herbicide (Compound A or Compound B) were prepared at 100 grams acid equivalent per liter (g ae/L). The emulsifiable concentrates also included a safener, cloquintocet-mexyl, at 120 grams active ingredient per liter (g ai/L). An aliquot of each emulsifiable concentrate was placed in a 25 mL glass vial and diluted with an aqueous mixture of 1.25% (v/v) ACTIROB® B esterified rapeseed oil (Bayer Crop Science, Research Triangle Park, N.C., USA) or MSO® Concentrate with LECI-TECH® methylated soybean oil (Loveland Products, Loveland, Colo., USA) to obtain concentrated stock solutions at the highest application rate for each herbicide, based upon a 12 milliliter (mL) application volume at a rate of 187 liters per hectare (L/ha). The concentrated stock solutions were further diluted with an aqueous mixture of 1.25% v/v ACTIROB® B or MSO® Concentrate with LECI-TECH® to obtain stock solutions at reduced application rates for each herbicide. Spray solutions of the herbicide combinations (Compound A or Compound B plus VLCFA synthesis inhibitor herbicide) were prepared by adding weighed amounts or aliquots of the VLCFA synthesis inhibitor herbicide to the stock solutions of Compound A or Compound B to form 12-mL spray solutions in two-way combinations.
# (§3) The spray solutions were applied to the plant material with an overhead Mandel track sprayer equipped with 8002E nozzles calibrated to deliver 187 L/ha over an application area of 0.503 square meters (m^2) at a spray height of 18 inches ([…] (cm)) above the average plant canopy. Control plants were sprayed in the same manner with the solvent blank. All pyridine carboxylate herbicide (component a) application rates are given as “g ae/ha” and all VLCFA synthesis inhibitor herbicide (component b) application rates are given as “g ai/ha.”
# (§4) The treated plants and control plants were placed in a greenhouse as described above and watered by sub-irrigation to prevent wash-off of the test compounds. After 20-22 d, the condition of the test plants as compared with that of the control plants was determined visually and scored on a scale of 0 to 100 percent where 0 corresponds to no injury and 100 corresponds to complete kill.
# [2] = tested on: Sinapis arvensis (wild mustard, SINAR); experiment: Greenhouse postemergence herbicidal effect, visual injury 20-22 d after spraying, wild mustard (SINAR); assay type: in vivo; conditions: for % visual injury Obs: SINAR
# Text: as §1, §2, §3, §4
# [3] = tested on: Viola tricolor (wild pansy, VIOTR); experiment: Greenhouse postemergence herbicidal effect, visual injury 20-22 d after spraying, wild pansy (VIOTR); assay type: in vivo; conditions: for % visual injury Obs: VIOTR
# Text: as §1, §2, §3, §4
# [4] = tested on: Chenopodium album L. (common lambsquarters, CHEAL); experiment: Greenhouse postemergence herbicidal effect, visual injury 20-22 d after spraying, common lambsquarters (CHEAL); assay type: in vivo
# Text: as §1, §2, §3, §4
# [5] = tested on: Veronica hederifolia (ivy-leaved speedwell, VERHE); experiment: Greenhouse postemergence herbicidal effect, visual injury 20-22 d after spraying, ivy-leaved speedwell (VERHE); assay type: in vivo
# Text: as §1, §2, §3, §4
# [6] = tested on: Matricaria inodora (scentless chamomile, MATIN); experiment: Greenhouse postemergence herbicidal effect, visual injury 20-22 d after spraying, scentless chamomile (MATIN); assay type: in vivo
# Text: as §1, §2, §3, §4
# [7] = tested on: Amaranthus retroflexus (pigweed, AMARE); experiment: Greenhouse postemergence herbicidal effect, visual injury 20-22 d after spraying, pigweed (AMARE); assay type: in vivo
# Text: as §1, §2, §3, §4
# [8] = tested on: Brassica napus (winter rape, BRSNW); experiment: Greenhouse postemergence herbicidal effect, visual injury 20-22 d after spraying, winter rape (BRSNW); assay type: in vivo; conditions: for % visual injury Obs: BRSNW
# Text: as §1, §2, §3, §4
# [9] = tested on: Papaver rhoeas (common poppy, PAPRH); experiment: Greenhouse postemergence herbicidal effect, visual injury 20-22 d after spraying, common poppy (PAPRH); assay type: in vivo
# Text: as §1, §2, §3, §4
# [10] = tested on: Helianthus annuus (common sunflower, HELAN); experiment: Greenhouse postemergence herbicidal effect, visual injury 20-22 d after spraying, common sunflower (HELAN); assay type: in vivo
# Text: as §1
# Emulsifiable concentrates of each of each pyridine carboxylate herbicide (Compound A or Compound B) were prepared at 100 grams acid equivalent per liter (g ae/L). The emulsifiable concentrates also included a safener, cloquintocet-mexyl, at 120 grams active ingredient per liter (g ai/L). […]
# as §4
# winter barley (HORVW) = experiment: Greenhouse postemergence crop phytotoxicity, visual injury 20-22 d after spraying, winter barley (HORVW); assay type: in vivo, Hordeum vulgare
# Text: as §1, §2, §3, §4
# [11] = tested on: Cirsium arvense (Canadian thistle, CIRAR); experiment: Greenhouse postemergence herbicidal effect, visual injury 20-22 d after spraying, Canadian thistle (CIRAR); assay type: in vivo
# Text: as §1, §2, §3, §4
# [12] = tested on: Capsella bursa-pastoris (shepherd's purse, CAPBP); experiment: Greenhouse postemergence herbicidal effect, visual injury 20-22 d after spraying, shepherd's purse (CAPBP); assay type: in vivo
# Text: as §1, §2, §3, §4
# [13] = tested on: Viola arvensis (field pansy, VIOAR); experiment: Greenhouse postemergence herbicidal effect, visual injury 20-22 d after spraying, field pansy (VIOAR); assay type: in vivo
# Text: as §1, §2, §3, §4
# [14] = tested on: Lamium purpureum (purple deadnettle, LAMPU); experiment: Greenhouse postemergence herbicidal effect, visual injury 20-22 d after spraying, purple deadnettle (LAMPU); assay type: in vivo
# Text: as §1, §2, §3, §4
# [15] = tested on: Triticum aestivum (spring wheat, TRZAS); experiment: Greenhouse postemergence crop phytotoxicity, visual injury 20-22 d after spraying, spring wheat (TRZAS); assay type: in vivo; conditions: for % visual injury Obs: TRZAS
# Text: as §1, §2, §3, §4
smiles,measurement,setting,value
"N#CCOC(=O)c1nc(-c2ccc3cc[nH]c3c2F)c(F)c(N)c1Cl [Compound A, cyanomethyl 4-amino-3-chloro-5-fluoro-6-(7-fluoro-1H-indol-6-yl)pyridine-2-carboxylate]",% visual injury POLCO Obs,[1]; Compound A 7.5 g/ha,65%
same,% visual injury POLCO Obs,[1]; Compound A 10 g/ha,78%
same,% visual injury POLCO Obs,[1]; Compound A 15 g/ha,85%
same,% visual injury SINAR Obs,[2]; Compound A 7.5 g/ha,88%
same,% visual injury SINAR Obs,[2]; Compound A 10 g/ha,91%
same,% visual injury SINAR Obs,[2]; Compound A 15 g/ha,91%
same,% visual injury Obs,[2]; Compound A 7.5 g/ha alone,88% and 85% and 83%
same,% visual injury Obs,[2]; Compound A 10 g/ha alone,90% and 92% and 88%
same,% visual injury VIOTR Obs,[3]; Compound A 7.5 g/ha,13%
same,% visual injury VIOTR Obs,[3]; Compound A 10 g/ha,15%
same,% visual injury VIOTR Obs,[3]; Compound A 15 g/ha,15%
same,% visual injury Obs,[3]; Compound A 7.5 g/ha alone,3%
same,% visual injury Obs,[3]; Compound A 10 g/ha alone,3%
same,% visual injury Obs,[4]; Compound A 7.5 g/ha alone,88% and 70% and 60% and 75%
same,% visual injury Obs,[4]; Compound A 10 g/ha alone,93% and 83% and 90% and 80%
same,% visual injury VERHE Obs,[5]; Compound A 7.5 g/ha,68%
same,% visual injury VERHE Obs,[5]; Compound A 10 g/ha,73%
same,% visual injury VERHE Obs,[5]; Compound A 15 g/ha,75%
same,% visual injury MATIN Obs,[6]; Compound A 7.5 g/ha,55%
same,% visual injury MATIN Obs,[6]; Compound A 10 g/ha,60%
same,% visual injury MATIN Obs,[6]; Compound A 15 g/ha,83%
same,% visual injury Obs,[7]; Compound A 7.5 g/ha alone,78% and 80% and 70% and 90%
same,% visual injury Obs,[7]; Compound A 10 g/ha alone,73% and 85% and 98%
same,% visual injury Obs,[8]; Compound A 7.5 g/ha alone,35%
same,% visual injury Obs,[8]; Compound A 10 g/ha alone,43% and 40%
same,% visual injury BRSNW Obs,[8]; Compound A 7.5 g/ha,60%
same,% visual injury BRSNW Obs,[8]; Compound A 10 g/ha,65%
same,% visual injury BRSNW Obs,[8]; Compound A 15 g/ha,73%
same,% visual injury PAPRH Obs,[9]; Compound A 7.5 g/ha,100%
same,% visual injury PAPRH Obs,[9]; Compound A 10 g/ha,99%
same,% visual injury PAPRH Obs,[9]; Compound A 15 g/ha,100%
same,% visual injury Obs,[10]; Compound A 7.5 g/ha alone,83%
same,% visual injury Obs,[10]; Compound A 10 g/ha alone,88%
same,% visual injury HORVW Obs,winter barley (HORVW); Compound A 7.5 g/ha,0%
same,% visual injury HORVW Obs,winter barley (HORVW); Compound A 10 g/ha,0%
same,% visual injury HORVW Obs,winter barley (HORVW); Compound A 15 g/ha,0%
same,% visual injury CIRAR Obs,[11]; Compound A 7.5 g/ha,50%
same,% visual injury CIRAR Obs,[11]; Compound A 10 g/ha,63%
same,% visual injury CIRAR Obs,[11]; Compound A 15 g/ha,63%
same,% visual injury CAPBP Obs,[12]; Compound A 7.5 g/ha,45%
same,% visual injury CAPBP Obs,[12]; Compound A 10 g/ha,55%
same,% visual injury CAPBP Obs,[12]; Compound A 15 g/ha,55%
same,% visual injury VIOAR Obs,[13]; Compound A 7.5 g/ha,10%
same,% visual injury VIOAR Obs,[13]; Compound A 10 g/ha,13%
same,% visual injury VIOAR Obs,[13]; Compound A 15 g/ha,10%
same,% visual injury LAMPU Obs,[14]; Compound A 7.5 g/ha,68%
same,% visual injury LAMPU Obs,[14]; Compound A 10 g/ha,73%
same,% visual injury LAMPU Obs,[14]; Compound A 15 g/ha,73%
same,% visual injury TRZAS Obs,[15]; Compound A 7.5 g/ha,0%
same,% visual injury TRZAS Obs,[15]; Compound A 10 g/ha,0%
same,% visual injury TRZAS Obs,[15]; Compound A 15 g/ha,0%
same,% visual injury Obs,[15]; Compound A 7.5 g/ha alone,0%
same,% visual injury Obs,[15]; Compound A 10 g/ha alone,0%
